According to US6599747B1, “Soil test” (University of Lancaster, priority 1998, dated 2003):

Assay: Extraction of soil-associated 14C-9-phenanthrene with aqueous HPCD solution
Assay type: physicochemical
Details: for Concentration Extracted into HPCD Solution: 20 h
Protocol: A sample was “spiked” with 10 mg kg^−1 14C-9phenanthrene. Samples of the soil (1.25 g) were then extracted for 20 hours (sufficient time for extraction of the rapidly i.e. non-kinetically restrained fraction of compounds to be exchanged—see Example 2) with increasing concentration solutions (25 ml) of HPCD in water. The amount of activity exchanged into the HPCD solution was measured as was the total activity present. The results are shown in Table 1 in which the activity units are dpm g^−1 soil (where dpm stands for disintegrations per minute).
The above extraction was repeated but using an HPCD solution having a concentration of 50 mM. However the extraction was terminated after 3, 6, 12, 18, 24 and 40 hours. The results are shown in Table 2 in which the activity units are dpm […] soil (where dpm stands for disintegration per minute).
Soil was “spiked” to concentrations of 25 and 50 mg kg^−1. The above extraction was repeated but using a HPCD solution having a concentration of 50 mM. Soil samples were aged for 1, 42 and 84 d prior to extraction. An extraction time of 20 h was used as before (Example 1 and 2 ). The biodegradability of the soil associated ^14C-9-phenanthrene was assessed using respirometry. Respirometers consisted of Erlyn,eyer flasks (250 mL), to which soil (10 g) and water (30 mL) were added. The flasks were innoculated (10^7-10^8 g^−1 soil) with a catabolocally active microbial culture. The sealed flasks were shaken and the carbon dioxide evolved from the biodegration of the phenanthrene trapped in potassium hydroxide (1 M, 1 mL.) Mineralisation was measured until it platcauted (240 h).

[1] = HPCD 0 mM, 20 h extraction, soil spiked 10 mg kg^−1
[2] = HPCD 5 mM, 20 h extraction, soil spiked 10 mg kg^−1
[3] = HPCD 10 mM, 20 h extraction, soil spiked 10 mg kg^−1
[4] = HPCD 20 mM, 20 h extraction, soil spiked 10 mg kg^−1
[5] = HPCD 40 mM, 20 h extraction, soil spiked 10 mg kg^−1
[6] = HPCD 50 mM, 20 h extraction, soil spiked 10 mg kg^−1
[7] = HPCD 60 mM, 20 h extraction, soil spiked 10 mg kg^−1

- HPCD solution concentration giving maximum extraction (20 h extraction, soil spiked 10 mg kg^−1): 40 mM
- % Exchangeable with HPCD solution [1]: 2.79%
- Activity Exchanged into HPCD Solution [1]: 86.96 dpm g^−1 soil
- % Exchangeable with HPCD solution [2]: 38.06%
- Activity Exchanged into HPCD Solution [2]: 1186.25 dpm g^−1 soil
- % Exchangeable with HPCD solution [3]: 45.88%
- Activity Exchanged into HPCD Solution [3]: 1429.98 dpm g^−1 soil
- % Exchangeable with HPCD solution [4]: 57.51%
- Activity Exchanged into HPCD Solution [4]: 1792.47 dpm g^−1 soil
- % Exchangeable with HPCD solution [5]: 71.63%
- Activity Exchanged into HPCD Solution [5]: 2232.56 dpm g^−1 soil
- extraction time after which the rapidly (non-kinetically restrained) fraction was extracted (HPCD 50 mM): 6 h
- % Exchangeable with HPCD solution [6]: 64.33%
- Activity Exchanged into HPCD Solution [6]: 2005.03 dpm g^−1 soil
- % Exchangeable with HPCD solution (HPCD 50 mM, extraction time 0 h): 0.0%
- % Exchangeable with HPCD solution (HPCD 50 mM, extraction time 3 h): 64.2%
- % Exchangeable with HPCD solution (HPCD 50 mM, extraction time 6 h): 73.4%
- % Exchangeable with HPCD solution (HPCD 50 mM, extraction time 12 h): 72.8%
- % Exchangeable with HPCD solution (HPCD 50 mM, extraction time 18 h): 74.5%
- % Exchangeable with HPCD solution (HPCD 50 mM, extraction time 24 h): 76.8%
- % Exchangeable with HPCD solution (HPCD 50 mM, extraction time 40 h): 75.6%
- % Exchangeable with HPCD solution [7]: 69.74%
- Activity Exchanged into HPCD Solution [7]: 2173.65 dpm g^−1 soil
- Concentration Extracted into HPCD Solution (soil spiked 25 mg/kg^−1, aged 1 d, HPCD 50 mM): 19.5 mg/kg^−1
- Concentration Extracted into HPCD Solution (soil spiked 25 mg/kg^−1, aged 42 d, HPCD 50 mM): 17.6 mg/kg^−1
- Concentration Extracted into HPCD Solution (soil spiked 25 mg/kg^−1, aged 84 d, HPCD 50 mM): 15.5 mg/kg^−1
- Concentration Extracted into HPCD Solution (soil spiked 50 mg/kg^−1, aged 1 d, HPCD 50 mM): 29.9 mg/kg^−1
- Concentration Extracted into HPCD Solution (soil spiked 50 mg/kg^−1, aged 42 d, HPCD 50 mM): 15.4 mg/kg^−1
- Concentration Extracted into HPCD Solution (soil spiked 50 mg/kg^−1, aged 84 d, HPCD 50 mM): 1.0 mg/kg^−1
SMILES: c1ccc2c(c1)ccc1ccccc12 [phenanthrene]
